Consider 24 compounds from US20040224958A1, “Pyridopyrimidinone derivatives for treatment of neurodegenerative disease” (priority 2000, published 2004).

In one test the target is cdc2/cyclinB (Homo sapiens, UniProt P06493). In words: Cyclin-Dependent Kinase Assay cdc2/cyclinB.
A further test has as its target cdk2/cyclinE (Homo sapiens, UniProt P24941). In words: Cyclin-Dependent Kinase Assay cdk2/cyclinE. Conditions: cdk2/E IC50.
In another test the target is Cdk5/p25 (Homo sapiens, UniProt Q00535). In words: Cyclin-Dependent Kinase 5 High Throughput Screening (cdk5-HTS) Assay. The test is classed as biochemical. Conditions: high throughput screen. The essentials: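 Cdk5/p25 (1.0 μg/mL) phosphorylates GST-RbCOOH (20 μg/mL) in 50 mM Tris pH 7.4 with 10 mM MgCl2 and 20 μM ATP spiked with [γ33P]ATP, 30 min at room temperature. After EDTA stop, substrate captured on glutathione-coated plates; 33P incorporation counted by scintillation; IC50 determined.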

In a further test the target is cdk4/D (Homo sapiens, UniProt P11802). In words: Cyclin-Dependent Kinase 4 (cdk4) Assay. It counts as biochemical. The settings on record: read-out: cdk4/D IC50.
A further test has as its target cdk2/cyclinA (Homo sapiens, UniProt P24941). In words: Cyclin-Dependent Kinase Assay cdk2/cyclinA. The settings on record: cdk2/A IC50.

cdk4/D, sequence (P11802 whole entry): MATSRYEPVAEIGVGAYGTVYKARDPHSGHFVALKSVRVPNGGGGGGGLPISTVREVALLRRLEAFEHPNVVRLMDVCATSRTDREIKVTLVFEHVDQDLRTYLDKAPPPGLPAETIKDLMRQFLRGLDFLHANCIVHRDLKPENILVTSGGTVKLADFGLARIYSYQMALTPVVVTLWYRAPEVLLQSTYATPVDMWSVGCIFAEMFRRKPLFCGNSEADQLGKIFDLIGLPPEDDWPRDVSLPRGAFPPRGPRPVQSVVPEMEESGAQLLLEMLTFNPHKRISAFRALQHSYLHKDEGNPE
cdk4/D, sequence (P24385 whole entry, further chain): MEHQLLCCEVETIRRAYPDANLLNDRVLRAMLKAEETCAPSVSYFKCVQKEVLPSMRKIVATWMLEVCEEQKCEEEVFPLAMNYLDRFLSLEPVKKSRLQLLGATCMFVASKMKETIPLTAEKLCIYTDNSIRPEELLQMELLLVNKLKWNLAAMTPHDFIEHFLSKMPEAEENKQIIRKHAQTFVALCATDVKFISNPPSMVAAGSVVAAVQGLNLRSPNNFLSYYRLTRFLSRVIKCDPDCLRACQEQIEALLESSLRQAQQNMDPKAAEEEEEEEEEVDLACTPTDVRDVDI
cdc2/cyclinB, sequence (P06493 whole entry): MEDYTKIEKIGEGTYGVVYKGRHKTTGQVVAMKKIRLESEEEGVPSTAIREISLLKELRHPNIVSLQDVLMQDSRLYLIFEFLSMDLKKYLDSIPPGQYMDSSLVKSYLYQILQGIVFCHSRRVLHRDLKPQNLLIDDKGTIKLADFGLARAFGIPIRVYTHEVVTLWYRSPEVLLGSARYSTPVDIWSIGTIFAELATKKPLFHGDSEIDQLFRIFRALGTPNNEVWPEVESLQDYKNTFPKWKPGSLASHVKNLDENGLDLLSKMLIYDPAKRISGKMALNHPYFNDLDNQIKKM
cdc2/cyclinB, sequence (P14635 whole entry, further chain): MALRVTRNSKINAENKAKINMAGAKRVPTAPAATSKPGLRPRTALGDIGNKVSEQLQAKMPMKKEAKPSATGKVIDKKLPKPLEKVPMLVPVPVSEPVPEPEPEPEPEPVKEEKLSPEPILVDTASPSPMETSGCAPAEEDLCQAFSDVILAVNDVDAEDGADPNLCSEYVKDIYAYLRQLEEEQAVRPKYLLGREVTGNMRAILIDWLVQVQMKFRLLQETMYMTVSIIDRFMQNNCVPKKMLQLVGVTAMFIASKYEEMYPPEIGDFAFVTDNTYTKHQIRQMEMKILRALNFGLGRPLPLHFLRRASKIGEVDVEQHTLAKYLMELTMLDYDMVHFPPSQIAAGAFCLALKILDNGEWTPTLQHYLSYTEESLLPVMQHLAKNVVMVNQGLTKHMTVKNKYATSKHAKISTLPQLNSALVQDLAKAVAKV

Regarding `CC(C)n1c(=O)ccc2cnc(Nc3ccc(Cl)c(C(F)(F)F)c3)nc21` [Example 421, 2-(4-Chloro-3-trifluoromethyl-phenylamino)-8-isopropyl-8H-pyrido[2,3-d]pyrimidin-7-one], the IC50 came out at 700 nM at cdc2/cyclinB; 3900 nM against cdk2/cyclinE; 83 nM against Cdk5/p25; 1900 nM at cdk4/D; 920 nM against cdk2/cyclinA.

As to `COc1ccc(Nc2ncc3ccc(=O)n(C(C)C)c3n2)cc1F` [Example 422, 2-(3-Fluoro-4-methoxy-phenylamino)-8-isopropyl-8H-pyrido[2,3-d]pyrimidin-7-one], the IC50 at cdc2/cyclinB turned out to be 160 nM; against cdk2/cyclinE, 170 nM; against Cdk5/p25, 9.7 nM; at cdk4/D it was 66 nM; against cdk2/cyclinA, 170 nM.

In the case of `CC(=O)Nc1cc(Nc2ncc3ccc(=O)n(C(C)C)c3n2)ccc1C#N` [Example 424, N-[2-Cyano-5-(8-isopropyl-7-oxo-7,8-dihydro-pyrido[2,3-d]pyrimidin-2-ylamino)-phenyl]-acetamide], the IC50 against cdc2/cyclinB was found to be 520 nM; on cdk2/cyclinE, 360 nM; against Cdk5/p25, 39 nM; on cdk4/D it was 100 nM; on cdk2/cyclinA, 460 nM.

As for `COc1cc(Nc2ncc3ccc(=O)n(C(C)C)c3n2)cc(C(F)(F)F)c1` [Example 425, 8-Isopropyl-2-(3-methoxy-5-trifluoromethyl-phenylamino)-8H-pyrido[2,3-d]pyrimidin-7-one], the IC50 on cdc2/cyclinB amounted to 490 nM; against cdk2/cyclinE, 770 nM; against Cdk5/p25, 180 nM; at cdk4/D it was 850 nM; on cdk2/cyclinA it was 1800 nM.

With `CC(C)n1c(=O)ccc2cnc(Nc3ccc(F)c(F)c3)nc21` [Example 426, 2-(3,4-Difluoro-phenylamino)-8-isopropyl-8H-pyrido[2,3-d]pyrimidin-7-one], the IC50 at cdc2/cyclinB worked out at 310 nM; against cdk2/cyclinE, 130 nM; against Cdk5/p25 it was 21 nM; on cdk4/D it was 58 nM; against cdk2/cyclinA, 210 nM.

Regarding `Cc1ccc(Nc2ncc3ccc(=O)n(C(C)C)c3n2)cc1I` [Example 427, 2-(3-Iodo-4-methyl-phenylamino)-8-isopropyl-8H-pyrido[2,3-d]pyrimidin-7-one], the IC50 against cdc2/cyclinB is 160 nM; at cdk2/cyclinE it was 160 nM; at Cdk5/p25, 21 nM; at cdk4/D, 140 nM; against cdk2/cyclinA, 590 nM.

For `CC(C)n1c(=O)ccc2cnc(Nc3cc(Cl)cc(Cl)c3)nc21` [Example 429, 2-(3,5-Dichloro-phenylamino)-8-isopropyl-8H-pyrido[2,3-d]pyrimidin-7-one], the IC50 came to 230 nM at cdc2/cyclinB; 120 nM against cdk2/cyclinE; 39 nM at Cdk5/p25; 560 nM at cdk4/D; 860 nM against cdk2/cyclinA.

`CC(C)n1c(=O)ccc2cnc(Nc3cccc(S(N)(=O)=O)c3)nc21` [Example 430, 3-(8-Isopropyl-7-oxo-7,8-dihydro-pyrido[2,3-d]pyrimidin-2-ylamino)-benzenesulfonamide]: the IC50 amounted to 180 nM on cdc2/cyclinB; 95 nM against cdk2/cyclinE; 15 nM against Cdk5/p25; 35 nM at cdk4/D; 240 nM against cdk2/cyclinA.

For `CC(C)n1c(=O)ccc2cnc(Nc3ccc4c(c3)CCCC4=O)nc21` [Example 431, 8-Isopropyl-2-(5-oxo-5,6,7,8-tetrahydro-naphthalen-2-ylamino)-8H-pyrido[2,3-d]pyrimidin-7-one], the IC50 is 170 nM against cdc2/cyclinB; 120 nM at cdk2/cyclinE; 23 nM at Cdk5/p25; 140 nM on cdk4/D; 300 nM at cdk2/cyclinA.

As to `CC(=O)N(C)c1ccc(Nc2ncc3ccc(=O)n(C(C)C)c3n2)cc1` [Example 432, N-[4-(8-Isopropyl-7-oxo-7,8-dihydro-pyrido[2,3-d]pyrimidin-2-ylamino)-phenyl]-N-methyl-acetamide], the IC50 was found to be 540 nM against cdc2/cyclinB; 390 nM on cdk2/cyclinE; 60 nM at Cdk5/p25; 150 nM on cdk4/D; 420 nM at cdk2/cyclinA.

Take `CC(C)n1c(=O)ccc2cnc(Nc3ccc(C#N)cc3)nc21` [Example 433, 4-(8-Isopropyl-7-oxo-7,8-dihydro-pyrido[2,3-d]pyrimidin-2-ylamino)-benzonitrile]: the IC50 at cdc2/cyclinB came to 480 nM; at cdk2/cyclinE, 230 nM; on Cdk5/p25, 76 nM; on cdk4/D, 250 nM; on cdk2/cyclinA, 160 nM.

For `Cc1ccc(Nc2ncc3ccc(=O)n(C(C)C)c3n2)cc1C` [Example 434, 2-(3,4-Dimethyl-phenylamino)-8-isopropyl-8H-pyrido[2,3-d]pyrimidin-7-one], the IC50 against cdc2/cyclinB came out at 470 nM; against cdk2/cyclinE, 520 nM; against Cdk5/p25, 54 nM; on cdk4/D, 350 nM; against cdk2/cyclinA, 400 nM.

Regarding `CC(C)n1c(=O)ccc2cnc(Nc3ccc4cn[nH]c4c3)nc21` [Example 438, 2-(1H-Indazol-6-ylamino)-8-isopropyl-8H-pyrido[2,3-d]pyrimidin-7-one], the IC50 against cdc2/cyclinB worked out at 955 nM; on cdk2/cyclinE, 690 nM; against Cdk5/p25, 215 nM; at cdk4/D it was 1110 nM; against cdk2/cyclinA, 380 nM.

Turning to `CC(=O)Nc1cc(Nc2ncc3ccc(=O)n(C(C)C)c3n2)ccc1C` [Example 440, N-[5-(8-Isopropyl-7-oxo-7,8-dihydro-pyrido[2,3-d]pyrimidin-2-ylamino)-2-methyl-phenyl]-acetamide], the IC50 at cdc2/cyclinB was 1400 nM; at cdk2/cyclinE, 1500 nM; against Cdk5/p25, 440 nM; on cdk4/D, 150 nM; on cdk2/cyclinA, 1100 nM.

`Cc1cc(Nc2ncc3ccc(=O)n(C(C)C)c3n2)cc(C)c1O` [Example 441, 2-(4-Hydroxy-3,5-dimethyl-phenylamino)-8-isopropyl-8H-pyrido[2,3-d]pyrimidin-7-one]: the IC50 was 290 nM against cdc2/cyclinB; 470 nM at cdk2/cyclinE; 150 nM against Cdk5/p25; 890 nM on cdk4/D; 290 nM against cdk2/cyclinA.

Consider `Cc1cc(Nc2ncc3ccc(=O)n(C(C)C)c3n2)ccc1Br` [Example 442, 2-(4-Bromo-3-methyl-phenylamino)-8-isopropyl-8H-pyrido[2,3-d]pyrimidin-7-one], for which the IC50 was 1900 nM against cdc2/cyclinB; 3600 nM against cdk2/cyclinE; 440 nM against Cdk5/p25; 3600 nM at cdk4/D; 1700 nM against cdk2/cyclinA.

Regarding `CC(C)n1c(=O)ccc2cnc(Nc3ccc(C(F)(F)F)cc3)nc21` [Example 443, 8-Isopropyl-2-(4-trifluoromethyl-phenylamino)-8H-pyrido[2,3-d]pyrimidin-7-one], the IC50 at cdc2/cyclinB was found to be 520 nM; at cdk2/cyclinE, 170 nM; against Cdk5/p25 it was 71 nM; at cdk4/D, 320 nM; on cdk2/cyclinA it was 200 nM.

Consider `CC(C)n1c(=O)ccc2cnc(Nc3ccc(OC(F)(F)F)cc3)nc21` [Example 444, 8-Isopropyl-2-(4-trifluoromethoxy-phenylamino)-8H-pyrido[2,3-d]pyrimidin-7-one], for which the IC50 against cdc2/cyclinB is 530 nM; on cdk2/cyclinE, 710 nM; against Cdk5/p25, 63 nM; on cdk4/D, 360 nM; on cdk2/cyclinA, 75 nM.

Take `CCC(C)n1c(=O)ccc2cnc(Nc3ccccc3)nc21` (stereo not drawn) [Example 446, 8-sec-Butyl-2-phenylamino-8H-pyrido[2,3-d]pyrimidin-7-one]: the IC50 against cdc2/cyclinB came out at 340 nM; on cdk2/cyclinE, 177 nM; against Cdk5/p25, 74.5 nM; on cdk4/D, 168 nM; at cdk2/cyclinA, 215 nM.

With `CCC(C)n1c(=O)ccc2cnc(Nc3ccc4[nH]ccc4c3)nc21` (stereo not drawn) [Example 447, 8-sec-Butyl-2-(1H-indol-5-ylamino)-8H-pyrido[2,3-d]pyrimidin-7-one], the IC50 against cdc2/cyclinB is 89.5 nM; against cdk2/cyclinE, 60.7 nM; against Cdk5/p25, 19 nM; at cdk4/D, 44.5 nM; on cdk2/cyclinA, 145 nM.

Regarding `CCC(C)n1c(=O)ccc2cnc(Nc3ccc4[nH]ncc4c3)nc21` (stereo not drawn) [Example 448, 8-sec-Butyl-2-(1H-indazol-5-ylamino)-8H-pyrido[2,3-d]pyrimidin-7-one], the IC50 on cdc2/cyclinB is 26.5 nM; against cdk2/cyclinE, 20 nM; against Cdk5/p25, 8.5 nM; at cdk4/D, 46 nM; on cdk2/cyclinA, 52 nM.

`CCC(C)n1c(=O)ccc2cnc(Nc3ccc4[nH]nnc4c3)nc21` (stereo not drawn) [Example 449, 2-(1H-Benzotriazol-5-ylamino)-8-sec-butyl-8H-pyrido[2,3-d]pyrimidin-7-one]: the IC50 against cdc2/cyclinB is 77.5 nM; against cdk2/cyclinE, 17.3 nM; against Cdk5/p25 it was 7.8 nM; on cdk4/D it was 128 nM; against cdk2/cyclinA, 41 nM.

On to `CCC(C)n1c(=O)ccc2cnc(Nc3ccc(NC(=O)OC(C)(C)C)cc3)nc21` (stereo not drawn) [Example 450, [4-(8-sec-Butyl-7-oxo-7,8-dihydro-pyrido[2,3-d]pyrimidin-2-ylamino)-phenyl]-carbamic acid tert-butyl ester], for which the IC50 amounted to 140 nM against cdc2/cyclinB; 130 nM on cdk2/cyclinE; 64.5 nM against Cdk5/p25; 113 nM on cdk4/D; 265 nM on cdk2/cyclinA.

In the case of `CCC(C)n1c(=O)ccc2cnc(Nc3ccc(O)cc3F)nc21` (stereo not drawn) [Example 451, 8-sec-Butyl-2-(2-fluoro-4-hydroxy-phenylamino)-8H-pyrido[2,3-d]pyrimidin-7-one], the IC50 against cdc2/cyclinB is 590 nM; on cdk2/cyclinE, 240 nM; at Cdk5/p25, 133 nM; on cdk4/D, 450 nM; at cdk2/cyclinA it was 555 nM.
